For orientation: IC50 means the concentration that gives 50% inhibition.

The values below come from patent US9493430B2, “Biaryl- or heterocyclic biaryl-substituted cyclohexene derivative compounds as CETP inhibitors” (CHONG KUN DANG PHARMACEUTICAL CORP., priority 2013, dated 2016).

Series [1] relates to patients. The conditions noted are these: human, in vivo; cited from earlier work.
Series [2] relates to patients. The settings on record: cited from earlier work.
Series [3] deals with H295R cell line (human adrenal cortical tumor cells). It is filed as cell-based. The conditions noted are these: 24 hours, 100 nM of torcetrapib, 1 μM of test compounds. As for the experimental part:
Evaluation of the Ability of CETP Inhibitor to Secrete Blood Pressure-Hormone
Based on this, the secretion of blood pressure-increasing hormones from human adrenal cortical tumor cells was evaluated. The cell line H295R was purchased from ATCC (CRL-2128) and cultured in DMEM/F-12 medium (1% ITS, 2.5% Nu-serum). The H295R cell line was dispensed into a 24-well plate at a cell density of 1×10^5/well, and stabilized for 24 hours, after which the cells were starved for 24 hours using serum-free DMEM/F-12. Then, the cells were treated with each of 100 nM of torcetrapib and 1 μM of test compounds 554, 557, 574, 584, 586, 593, 618, 643, 650, 661, 681 and 695. At 24 hours after treatment with the drug or the compound, the supernatant was taken and stored at −20° C. The supernatant stored at −20° C. was thawed, and the amounts of aldosterone and cortisol secreted from the cells were measured using an aldosterone EIA kit (Cayman-10004377) and cortisol EIA kit (Cayman-500360).
2. Statistical Processing
(§1) All test results were expressed as Mean±SEM, and to evaluate the effect of each test group, each test group was compared with the control group using one-way ANOVA test (Dunnett's test, p<0.001).

Series [4] concerns human adrenal cortical tumor cells. The settings on record: cited from earlier work.
Series [5] deals with patients. The conditions noted are these: patients administered with Anacetrapib; cited from earlier work.
Series [6] has as its system patients. The conditions noted are these: human, in vivo; cited from earlier work. This is another data set of the same source.
Another series relates to golden Syrian hamsters. The experiment in a line: Test for anti-hyperlipidemic effect in hamsters (in vivo). The settings on record: Mesocricetus auratus, po, 3 mg/kg orally for 5 days, blood 4 hours after final administration, vs control; for inhibition in vivo at 3 mg/kg: read-out: Decrease in LDL-c (%); for change in vivo at 3 mg/kg: read-out: Increase in HDL-c (%).
Source text: Test for Anti-Hyperlipidemic Effect in Hamsters (In Vivo)
In this test, 8-week-old male golden Syrian hamsters were used. The breeding room was maintained at constant temperature and constant humidity and a 12-hr light/12-hr dark cycle. The animals were allowed access to feed and water ad libitum.
2. Anti-Hyperlipidemic Test in Hamsters
The test animals were acclimated for 1 week before use in the test. The test animals were divided according to body weight into several groups, each consisting of 5-8 animals, and were then administered orally with a dose of 3 mg/kg. A solvent control and a CETP inhibitor were dissolved in imwitor 742: tween 80 (1:1) and administered orally for 5 days, and at 4 hours after the final administration, blood was collected from the heart. The collected blood was centrifuged at 3000 rpm for 15 minutes, and the separated serum was measured for HDL-Cholesterol (Biosystem) and LDL-Cholesterol (Biosystem) using a biochemical analysis instrument (ILab 300 plus, Instrumentation Laboratory).
(§2) 3. Statistical Processing
as §1

Another series deals with CETP (Homo sapiens (Human), UniProt P11597). The experiment in a line: Test for inhibition of cholesteryl ester transfer (in vitro). In kind it is biochemical. The conditions noted are these: human plasma as CETP source, LDL from healthy persons as acceptor, rHDL-agarose donor, 37° C.
Source text: Test for Inhibition of Cholesteryl Ester Transfer (In Vitro)
1. Construction of Cholesteryl Ester Donor
To construct a cholesteryl ester donor to be used in the test, radiolabeled recombinant HDL containing […] (GE healthcare, TRK886, 3.5 μCi/mg of apoA-1) and apoA-1 was synthesized. Then, rHDL-agarose having the recombinant HDL immobilized thereon by CNBr-activated Sepharose 4B (Amersham Biosciences, Sweden) resin was used in the test.
2. Cholesteryl Ester Transfer Test
As a protein source for cholesteryl ester transfer, plasma from healthy persons was used, and as a cholesteryl ester receptor, LDL from healthy persons was used. Samples were treated with each test compound to final concentrations of 16, 80, 400, 2000 and 10000 nM and analyzed in duplicate. For the cholesteryl ester transfer test, 20 μl of plasma, 50 μl of LDL (0.25 mg/ml) and 50 μl of rHDL-agarose (0.25 mg/ml) were added, and a solution containing a test compound was added, followed by reaction at 37° C. Then, centrifugation was performed at 4° C. for 3 minutes to stop the reaction, and 150 μl of the supernatant was taken and transferred to a 96-well plate for radioactivity measurement, and the radioactivity of the plate was measured with a beta-ray detector.
as §2
The ratio of [^3H]-cholesteryl oleate from HDL to LDL was calculated and used as a result value, and from the result value, IC50 value was calculated using GraphPad Prism 5.0.

Each structure is given as a SMILES string.

Chain of CETP (P11597 18-493): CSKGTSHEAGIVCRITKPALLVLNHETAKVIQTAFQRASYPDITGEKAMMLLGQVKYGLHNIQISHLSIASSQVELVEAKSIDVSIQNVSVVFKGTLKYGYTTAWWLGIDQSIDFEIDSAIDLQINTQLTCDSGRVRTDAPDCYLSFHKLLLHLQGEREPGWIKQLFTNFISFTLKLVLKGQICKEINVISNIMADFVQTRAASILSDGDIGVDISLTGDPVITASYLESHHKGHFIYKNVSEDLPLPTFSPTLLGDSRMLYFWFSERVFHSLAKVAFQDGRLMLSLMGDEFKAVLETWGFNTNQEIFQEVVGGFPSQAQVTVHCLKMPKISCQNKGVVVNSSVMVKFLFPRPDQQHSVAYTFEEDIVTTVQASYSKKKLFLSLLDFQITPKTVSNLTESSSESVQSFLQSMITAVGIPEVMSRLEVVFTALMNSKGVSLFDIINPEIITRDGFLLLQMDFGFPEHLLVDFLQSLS

As for `CCC(CC)CC1(C(=O)Nc2ccccc2SC(=O)C(C)C)CCCCC1` [Dalcetrapib], in the series on patients [1], the “effects (efficacy)” value is “insufficient effects” and the side effects result is “does not have the side effects of Torcetrapib”.

On to `CCOC(=O)N1c2ccc(C(F)(F)F)cc2[C@@H](N(Cc2cc(C(F)(F)F)cc(C(F)(F)F)c2)C(=O)OC)C[C@H]1CC` [torcetrapib], for which the “morbidity rate and mortality rate” value in the series on patients [2] (combination of torcetrapib and atorvastatin compared to atorvastatin alone) was “increase”. In the series on patients [2] (human, in vivo), the blood pressure result was “causes an increase in blood pressure” and the mortality rate entry was “an increase in mortality rate”. Further, in series [3], the secretion of aldosterone result is “increased the secretion of the two hormones” and the secretion of cortisol result is recorded as “increased the secretion of the two hormones”. Further, in series [4], the secretion of aldosterone result is “increased the secretion of aldosterone and cortisol”; the secretion of cortisol entry was “increased the secretion of aldosterone and cortisol”.

On to `COc1cc(F)c(C(C)C)cc1-c1ccc(C(F)(F)F)cc1CN1C(=O)O[C@H](c2cc(C(F)(F)F)cc(C(F)(F)F)c2)[C@@H]1C` [Anacetrapib], for which, in the series on patients [5], the HDL-c level increase is 138% and the LDL-c level decrease is recorded as 40%.

On to `Cc1cc(C)c2c(c1)[C@@H](N(Cc1cc(C(F)(F)F)cc(C(F)(F)F)c1)c1nnn(C)n1)CCCN2C[C@H]1CC[C@H](C(=O)O)CC1` [Evacetrapib], for which, in the series with patients [6], the HDL-c levels entry was “increases HDL-c levels in a dose-dependent manner” and the “side effects such as blood pressure elevation” value is “does not cause side effects such blood pressure elevation”.

As for `COc1ncc(-c2ccc(C(=O)O)cc2Cl)cc1C1=C(CN2C(=O)O[C@H](c3cc(C(F)(F)F)cc(C(F)(F)F)c3)[C@@H]2C)CC(C)(C)CC1` [Compound 584, 4-(3-(2-(((4S,5R)-5-(3,5-bis(trifluoromethyl)phenyl)-4-methyl-2-oxooxazolidin-3-yl)methyl)-4,4-dimethylcyclohex-1-enyl)-2-methoxypyridin-5-yl)-3-chlorobenzoic acid], in the series with golden Syrian hamsters, the inhibition in vivo at 3 mg/kg amounted to 40% and the change in vivo at 3 mg/kg was found to be 46%. On CETP, this compound came in with a half-maximal inhibitory concentration (IC50) of 5.3 nM.

As to `COc1ccc(-c2ccc(C(=O)O)cc2Cl)cc1C1=C(CN2C(=O)O[C@H](c3cc(C(F)(F)F)cc(C(F)(F)F)c3)[C@@H]2C)CC(C)(C)CC1` [Compound 643, 3′-(2-(((4S,5R)-5-(3,5-bis(trifluoromethyl)phenyl)-4-methyl-2-oxooxazolidin-3-yl)methyl)-4,4-dimethylcyclohex-1-enyl)-2-chloro-4′-methoxybiphenyl-4-carboxylic acid], in the series with golden Syrian hamsters, the inhibition in vivo at 3 mg/kg is 17% and the change in vivo at 3 mg/kg came out at 68%. The half-maximal inhibitory concentration (IC50) against CETP was 7.3 nM.

With `COc1ccc(-c2c(F)cc(C(=O)O)cc2F)cc1C1=C(CN2C(=O)O[C@H](c3cc(C(F)(F)F)cc(C(F)(F)F)c3)[C@@H]2C)CC(C)(C)CC1` [Compound 593, 3′-(2-(((4S,5R)-5-(3,5-bis(trifluoromethyl)phenyl)-4-methyl-2-oxooxazolidin-3-yl)methyl)-4,4-dimethylcyclohex-1-enyl)-2,6-difluoro-4′-methoxybiphenyl-4-carboxylic acid], in the series on golden Syrian hamsters, the inhibition in vivo at 3 mg/kg was 29% and the change in vivo at 3 mg/kg was 61%. Moreover, on CETP, the half-maximal inhibitory concentration (IC50) came out at 1.5 nM.

Regarding `COc1cc(F)c(-c2ccc(C(=O)O)cc2F)cc1C1=C(CN2C(=O)O[C@H](c3cc(C(F)(F)F)cc(C(F)(F)F)c3)[C@@H]2C)CC(C)(C)CC1` [Compound 661, 5′-(2-(((4S,5R)-5-(3,5-bis(trifluoromethyl)phenyl)-4-methyl-2-oxooxazolidin-3-yl)methyl)-4,4-dimethylcyclohex-1-enyl)-2,2′-difluoro-4′-methoxybiphenyl-4-carboxylic acid], in the series with golden Syrian hamsters, the inhibition in vivo at 3 mg/kg was 20% and the change in vivo at 3 mg/kg is 53%. At CETP, this compound showed a concentration for half-maximal inhibition (IC50) of 2.5 nM.
